From article doi:10.1101/2025.07.30.663779v2 (biorxiv, 2025)

Experiments:
recombinant streptavidin = recombinant streptavidin (Streptomyces avidinii, UniProt P22629); assay: fluorescence polarization titration; format: binding; conditions: PBS; 20 nM biotin-FITC (Millipore-Sigma cat. 53608); labelled compound
αCD40-mSAs = assay: fluorescence polarization titration; format: binding; conditions: PBS; 20 nM biotin-FITC (Millipore-Sigma cat. 53608); labelled compound

Chain of recombinant streptavidin (P22629 25-183): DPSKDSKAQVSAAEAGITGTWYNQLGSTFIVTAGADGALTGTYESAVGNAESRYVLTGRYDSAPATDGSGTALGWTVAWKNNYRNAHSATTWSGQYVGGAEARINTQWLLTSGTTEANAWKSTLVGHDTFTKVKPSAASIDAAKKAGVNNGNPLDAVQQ

biotin-FITC
Kd (recombinant streptavidin): 20.6 nM
Kd (αCD40-mSAs): 69.2 nM
